Common to all, as to type: cell-based, human
Experiment [1] deals with prostasin mRNA (MDA-MB-231 cells). Description: reactivation of prostasin expression, RT-PCR/Southern blot. The settings on record: MDA-MB-231, 500 nM 5-aza-2′-dC 24 hr followed by 95% ethanol (solvent for TSA). The procedure: (§1) Cells grown to 80% confluence (in […] tissue culture dish) were lysed directly with 1 ml of the Trizol Reagent (life Technologies) and RNA was isolated according to the manufacturer's protocol. The human prostasin-specific RT-PCR/Southern blot analysis was performed as described in Yu, J X, and Chao,J Molecular Cloning, tissue-specific expression and cellular localization of human prostasin mRNA. J Biol Chem 1995; 270:12483-4. One microgram of total RNA was used in the RT-PCR with 2 human prostasin gene-specific oligonucleotide primers, and a Southern blot of the resolved RT-PCR samples was probed with a third prostasin gene-specific oligonucleotide, detecting an amplified 232 bp fragment. A co-amplification of the β-actin mRNA for control of RNA quality and quantity was performed as described in Chen Hodge and Guarda, et al.
(§2) For demethylation of prostasin gene promoter, MDA-MB-231 and MDA-MB-435s cells were seeded in 100 mm dishes at an initial density of 50% confluence and cultured in the presence of 500 nM 5-aza-2′-deoxycytidine (5-aza-2′dC; Sigma-Aldrich) for 8 days with renewal of medium and 5-aza-2′-dC performed at 2 day intervals. Genomic DNA was then isolated for Southern blot analysis as described. For reactivation of prostasin expression, MDA-MB-231 and MDA-MB-435s cells were seeded in 60 mm dishes at 80% confluence and cultured in the presence of 500 nM 5-aza-2′-dC for 24 hr, and were then treated for an additional 24 hr with either 1 μM trichostatin A (TSA; Sigma Aldrich) or an equal volume of 95% ethanol used to dissolve TSA. For measuring time-dependence of prostatin gene reactivation, cells were treated as described above but were harvested at 6 or 12 hr after the addition of TSA. RNA was isolated for prostasin-specifric RT-PCR/Southern blot analysis as described. The MCF-7 and the MDA-MB-453 cell ines were subjected tot the same 5-aza-2′-dC/TSA treatment and prostasin RT-PCR Southern blot analysis procedures.

The test system of experiment [2] is prostasin mRNA (MDA-MB-435s cells). The experiment is described as above. As to the method: as §1, §2
Experiment [3] has as its system prostasin gene promoter (MDA-MB-435s cells). Kind of experiment: demethylation of prostasin gene promoter, genomic Southern blot. The settings on record: 500 nM, 8 days. The text has this:
(§3) High molecular weight genomic DNA was isolated from various cell lines as described in Chai, K X, Ward, D C, Chao, J, et al Molecular Clonings Sequence Analysis and Chromosomal Localization of the Human Protease Inhibitor 4 (kallistatin) gene (P14) Genomics 1994; 23:370-8. Genomic DNA frm each cell line was digested with the following restriction enzyme combinations:Xho I/BamH I (X/B), Xho I/BamH I/Hha (X/B/Hh), Xho I/BamH I/Aci I (X/B/A), Xho I/Bam H I.Bsa I (X/B/Bs),Xho I/Bam H I/Msp I(X/B/M) or Xho I/Bam H I/Hpa II(X/B/H) using 10 μg of DNA per digestion combination. The X/B cutting sites flank the CpG sies be to be investigated for differential methylation by the methylation-sensitive restriction endonucleases. The digests were resolved in a 0.8% agarose gel and analyzed by Southern blot hybridization as described in Chai, K X, Ward, D C, Chao, J et al. A nick translated prostasin promoter probe (bases 703-1,649) of the prostasin gene sequence, Genbank accession number U33446) was used for the hybridization. The base numbering of the prostasin gene sequence was described in Yu et al. […]

Experiment [4] deals with prostasin gene promoter (DU-145 cells). The experiment is described as above. To be noted: DU-145, 8 days.
Excerpt: as §3

Experiment [5] has as its system prostasin gene promoter (PC-3 cells). The experiment is described as above. To be noted: PC-3, 8 days.
Excerpt: as §3

Experiment [6] deals with prostasin mRNA (DU-145 cells). Description: reactivation of prostasin expression, RT-PCR/Southern blot. To be noted: DU-145, after 8 days 5-aza-2′-dC. The procedure:
as §1
(§4) Du-145 and […] an additional 24 hours with either 1 μM trichostatin A (TSA, Sigma-Aldrich Co.) or an equal volume of 95% ethanol used to dissolve TSA. TNA was isolated for prostasin-specific RT-PCR/Southern blot analysis as described in example 1.

The test system of experiment [7] is prostasin mRNA (PC-3 cells). Described as above. To be noted: PC-3, after 8 days 5-aza-2′-dC. The procedure: as §1, §4

As for `Nc1ncn([C@H]2C[C@H](O)[C@@H](CO)O2)c(=O)n1` [5-aza-2′-dC, 5-aza-2′-deoxycytidine], the “prostasin mRNA re-expression” value in experiment [1] and in experiment [2] (500 nM 5-aza-2′-dC 24 hr followed by 95% ethanol (solvent for TSA)) was “did not result in prostasin mRNA re-expression” throughout. For the same compound, the “prostasin mRNA expression” value in experiment [2] (after 8-day 5-aza-2′-dC treatment) is listed as “failed to detect prostasin mRNA expression”; in experiment [6] it was “no prostasin mRNA expression was detected”; in experiment [7] it was “no prostasin mRNA expression was detected”. Further, in experiment [3], the “demethylation of prostasin promoter-exon 1 region” value is recorded as “significant level of demethylation”. Also, the “demethylation of prostasin promoter” value in experiment [4] and in experiment [5] was “significant level of demethylation” in each case.
